Measured values reported in patent US20250136614A1, “2,7-SUBSTITUTED PYRROLO[2,1-F][1,2,4]TRIAZINE COMPOUND HAVING PROTEIN KINASE INHIBITORY ACTIVITY” (Magicbullettherapeutics Co., Ltd., priority 2021, published 2025).
Where a chain is given by its changes, count along the chain named.

Columns and labels:
Ba/F3 FLT3 (ITD) = molecular target: T1, Ba/F3 FLT3 (ITD) (Homo sapiens, UniProt P36888, cells depend on it, form not given); assay: Ba/F3 cell growth inhibition (CellTiter-Glo, 72 hours); format: cell-based; settings: read-out: Ba/F3 GI50s (μM) FLT3 (ITD)
T1 sequence (P36888 1-993): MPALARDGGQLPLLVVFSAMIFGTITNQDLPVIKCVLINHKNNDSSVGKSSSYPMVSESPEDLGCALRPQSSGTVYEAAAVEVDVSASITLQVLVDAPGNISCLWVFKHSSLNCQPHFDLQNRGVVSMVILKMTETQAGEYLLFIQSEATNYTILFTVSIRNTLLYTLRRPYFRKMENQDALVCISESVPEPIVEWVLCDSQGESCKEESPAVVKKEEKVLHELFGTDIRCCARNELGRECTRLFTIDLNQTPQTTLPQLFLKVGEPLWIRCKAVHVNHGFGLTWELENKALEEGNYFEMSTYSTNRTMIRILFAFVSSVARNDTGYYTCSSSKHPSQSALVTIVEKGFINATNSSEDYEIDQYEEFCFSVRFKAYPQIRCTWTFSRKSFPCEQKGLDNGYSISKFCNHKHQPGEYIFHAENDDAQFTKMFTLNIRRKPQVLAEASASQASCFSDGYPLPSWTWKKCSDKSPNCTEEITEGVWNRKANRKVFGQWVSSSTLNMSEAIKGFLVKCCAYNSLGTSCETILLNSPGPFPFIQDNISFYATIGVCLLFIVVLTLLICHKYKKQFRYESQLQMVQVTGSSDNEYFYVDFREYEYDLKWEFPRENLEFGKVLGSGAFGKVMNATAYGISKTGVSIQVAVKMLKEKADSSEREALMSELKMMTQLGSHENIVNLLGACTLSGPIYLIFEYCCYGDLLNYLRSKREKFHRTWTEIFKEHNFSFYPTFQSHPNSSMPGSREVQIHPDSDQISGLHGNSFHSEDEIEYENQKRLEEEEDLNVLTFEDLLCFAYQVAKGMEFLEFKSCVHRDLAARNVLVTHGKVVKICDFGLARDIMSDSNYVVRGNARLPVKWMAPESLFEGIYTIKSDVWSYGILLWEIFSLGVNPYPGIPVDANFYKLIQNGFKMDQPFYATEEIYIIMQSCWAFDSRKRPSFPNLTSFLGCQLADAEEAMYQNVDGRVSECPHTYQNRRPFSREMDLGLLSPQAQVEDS
Experimental: (§1) Seeding 3000 cells per well in a 96-well plate. After cell stabilization, treat the cells with compounds diluted in […] at a ⅓ serial dilution and culture for 72 hours. Following treatment with CellTiter-Glo, luminescence is produced only in the presence of ATP, as luciferase degrades luciferin. Luminescence values were measured using Envision (PerkinElmer). Based on the measured luminescence values, the concentration of compounds causing cell death was calculated to determine the GI50 value.
(§2) The activity values were categorized into three levels. • A: IC50<1 μM • B: 1 μM≤IC50<10 μM, • C: IC50≥10 μM

[1] = molecular target: T2, Ba/F3 FLT3 (ITD/D835YF691L) (Homo sapiens, UniProt P36888, F691L/D835Y, cells depend on it, form not given); assay: as above; format: cell-based; settings: read-out: Ba/F3 GI50s (μM) FLT3 (ITD/D835YF691L)
T2 sequence (P36888 1-993 F691L/D835Y): T1 sequence (P36888 1-993) with F691L, D835Y
Experimental: as §1, §2

SMILES	GI50 (Ba/F3 FLT3 (ITD)) [µM]	GI50 [1] [µM]
CN1CCCn2cc(cn2)Nc2ncc3ccc(n3n2)-c2ccc(cc2)OCC1 [Example 2]	< 1	< 1
CC(=O)N1CCCn2cc(cn2)Nc2ncc3ccc(n3n2)-c2ccc(cc2)OCC1 [Example 3, 1-((2^1Z,4^4E)-4^1H-11-oxa-3,8-diaza-2(7,2)-pyrrolo[2,1-f1][1,2,4]triazina-4(4,1)-pyrazola-1(1,4)-benzenacycloundecaphane-8-yl)ethan-1-one]	< 1	< 1
COc1cccc(NC(=O)N2CCCn3cc(cn3)Nc3ncc4ccc(n4n3)-c3ccc(cc3)OCC2)c1 [Example 7, (2^1Z,4^4E)-N-(3-methoxyphenyl)-4^1H-11-oxa-3,8-diaza-2(7,2)-pyrrolo[2,1-f][1,2,4]triazina-4(4,1)-pyrazola-1(1,4)-benzenecycloundecaphane-8-carboxamide]	< 1	1 to 10
CS(=O)(=O)N1CCCn2cc(cn2)Nc2ncc3ccc(n3n2)-c2ccc(cc2)OCC1 [Example 9, (2^1Z,4^4E)-8-(methylsulfonyl)-4^1H-11-oxa-3,8-diaza-2(7,2)-pyrrolo[2,1-f][1,2,4]triazina-4(4,1)-pyrazola-1(1,4)-benzenecycloundecaphane]	< 1	< 1
O=C1CCCCCCn2cc(cn2)-c2ccc3cnc(nn23)Nc2ccc(cc2)OCCCN1 [Example 17, (1^4Z,2^1Z)-1′H-5-oxa-3,9-diaza-2(7,2)-pyrrolo[2,1-f][1,2,4]triazina-1(4,1)-pyrazola-4(1,4)-benzenacyclohexadecaphan-10-one]	1 to 10	1 to 10
O=C1CCCCCCOc2ccc(cc2F)-c2ccc3cnc(nn23)Nc2ccc(cc2)OCCCN1 [Example 20, (Z)-13-fluoro-5,17-dioxa-3,9-diaza-2(7,2)-pyrrolo[2,1-f][1,2,4]triazina-1,4(1,4)-dibenzenacycloheptadecaphan-10-one]	1 to 10	≥ 10
O=C1CCCCCCOc2ccc(cc2)-c2ccc3cnc(nn23)Nc2ccc(cc2)N2CCN(CCCN1)CC2 [Example 23, (Z)-17-oxa-3,9-diaza-2(7,2)-pyrrolo[2,1-f][1,2,4]triazina-5(1,4)-piperazina-1,4(1,4)-dibenzenacycloheptadecaphan-10-one]	< 1	1 to 10
O=C1CCCCCCOc2ccc(cc2)-c2ccc3cnc(nn23)Nc2ccc(cc2)N2CCN1CC2 [Example 24, (Z)-13-oxa-3-aza-2(7,2)-pyrrolo[2,1-f][1,2,4]triazina-5(1,4)-piperazina-1,4(1,4)-dibenzenacyclotridecaphan-6-one]	1 to 10	≥ 10
O=C1CCCCOc2ccc(cc2)-c2ccc3cnc(nn23)Nc2cnn(c2)C2CCN1CC2 [Example 25, (2^1Z,4^4E)-4^1H-11-oxa-3-aza-2(7,2)-pyrrolo[2,1-f][1,2,4]triazina-5(4,1)-piperidina-4(4,1)-pyrazola-1(1,4)-benzenacycloundecaphan-6-one]	< 1	1 to 10
O=C1CCCCOc2ccc(cc2)-c2ccc3cnc(nn23)Nc2cnn(c2)C2CCN(CCCN1)CC2 [Example 26, (2^1Z,4^4E)-4^1H-15-oxa-3,9-diaza-2(7,2)-pyrrolo[2,1-f1][1,2,4]triazina-5(4,1)-piperidina-4(4,1)-pyrazola-1(1,4)-benzenacyclopentadecaphan-10-one]	< 1	< 1
O=C1CCCCCCOc2ccc(cc2)-c2ccc3cnc(nn23)Nc2cnn(c2)C2CCN(CCCN1)CC2 [Example 27, (2^1Z,4^4E)-4^1H-17-oxa-3,9-diaza-2(7,2)-pyrrolo[2,1-f1][1,2,4]triazina-5(4,1)-piperidina-4(4,1)-pyrazola-1(1,4)-benzenacycloheptadecaphan-10-one]	< 1	< 1
O=C1COCCOc2ccc(cc2)-c2ccc3cnc(nn23)Nc2ccc(cc2)OCCCN1 [Example 28, (Z)-5,12,15-trioxa-3,9-diaza-2(7,2)-pyrrolo[2,1-f][1,2,4]triazina-1,4(1,4)-dibenzenacyclopentadecaphan-10-one]	< 1	1 to 10

Results, then the compound that gave them:

GI50 (Ba/F3 FLT3 (ITD)) [µM]	GI50 [1] [µM]	SMILES
< 1	1 to 10	O=C1CCCCCCOc2ccc(cc2)-c2ccc3cnc(nn23)Nc2ccc(cc2)OCCCN1 [Example 29, (Z)-5,17-dioxa-3,9-diaza-2(7,2)-pyrrolo[2,1-f][1,2,4]triazina-1,4(1,4)-dibenzenacycloheptadecaphan-10-one]
< 1	< 1	c1cc2ccc1Nc1ncc3ccc(n3n1)-c1ccc(cc1)OCCNCCCO2 [Example 30, (Z)-5,12-dioxa-3,9-diaza-2(7,2)-pyrrolo[2,1-f][1,2,4]triazina-1,4(1,4)-dibenzenacyclododecaphane]
1 to 10	1 to 10	COc1cc2ccc1Nc1ncc3ccc(n3n1)-c1ccc(cc1)OCCOCC(=O)NCCCO2 [Example 34, (Z)-42-methoxy-5,12,15-trioxa-3,9-diaza-2(7,2)-pyrrolo[2,1-f][1,2,4]triazina-1,4(1,4)-dibenzenacyclopentadecaphan-10-one]
< 1	< 1	O=C1COCCOc2ccc(cc2)-c2ccc3cnc(nn23)Nc2cnn(c2)CCCN1 [Example 35, (2^1Z,4^4E)-4^1H-11,14-dioxa-3,8-diaza-2(7,2)-pyrrolo[2,1-f1][1,2,4]triazina-4(4,1)-pyrazola-1(1,4)-benzenacyclotetradecaphan-9-one]
< 1	< 1	O=C1CCCCOc2ccc(cc2)-c2ccc3cnc(nn23)Nc2cnn(c2)CCCN1 [Example 36, (2^1Z,4^4E)-4^1H-14-oxa-3,8-diaza-2(7,2)-pyrrolo[2,1-f][1,2,4]triazina-4(4,1)-pyrazola-1(1,4)-benzenacyclotetradecaphan-9-one]
< 1	1 to 10	O=C1CCCCCCOc2ccc(cc2)-c2ccc3cnc(nn23)Nc2cnn(c2)CCCN1 [Example 37, (2^1Z,4^4E)-4^1H-16-oxa-3,8-diaza-2(7,2)-pyrrolo[2,1-f1][1,2,4]triazina-4(4,1)-pyrazola-1(1,4)-benzenacyclohexadecaphan-9-one]
< 1	1 to 10	O=C1CCCCOc2ccc(cc2)-c2ccc3cnc(nn23)Nc2ccc(cc2)OCCCN1 [Example 38, (Z)-5,15-dioxa-3,9-diaza-2(7,2)-pyrrolo[2,1-f][1,2,4]triazina-1,4(1,4)-dibenzenacyclopentadecaphan-10-one]
≥ 10	≥ 10	CS(=O)(=O)Nc1cccc(-c2ccc3cnc(Nc4ccc(N5CCN(CCCCCOc6cccc7c6C(=O)N(C6CCC(=O)NC6=O)C7=O)CC5)cc4)nn23)c1 (stereo not shown) [Example 39]
